From ChEMBL document CHEMBL1201862, “PubChem BioAssay data set” (2004) come the findings set out here.

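Grown in 96-well plates, cells were treated for 48 hours with each compound at five concentrations. Insufficient inhibition: endpoint recorded as highest concentration tested. GI50 = concentration required for 50% inhibition of growth.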 Calls of active or inactive are those of the source. Cut-off read from the data, not from the text of the source: active = GI50 up to about 1.1 µM and inactive = higher.

Common to all, as to test: NCI-60 cell line screen, 48 h
In assay [1] the test system is UO-31.
Assay [2] deals with NCI-H226.
For assay [3], the system named is OVCAR-4.
Assay [4] has as its system UACC-257.
Assay [5] deals with COLO 205.
In assay [6] the test system is HCT-116.
The subject of assay [7] is NCI-H460.
In assay [8] the test system is SF-268.
Assay [9] deals with HCT-15.
In assay [10] the test system is EKVX.
The test system of assay [11] is DU-145.
Assay [12] concerns ACHN.
Assay [13] relates to K562.
The subject of assay [14] is HOP-92.
For assay [15], the system named is SK-MEL-2.
Assay [16] has as its system HT-29.
Assay [17] concerns MDA-N.
In assay [18] the test system is SR.
In assay [19] the test system is RXF 393.
For assay [20], the system named is CCRF-CEM.

Consider `Oc1nc(S)nc2c1CN(CCCN1CCOCC1)CN2`, for which the GI50 in assay [1] is 36.8 µM (inactive); in assay [2] it was > 100 µM (inactive); in assay [3], 38.5 µM (inactive); in assay [4] it was 40.2 µM (inactive); in [5], 18.3 µM (inactive); in [6], 34.4 µM (inactive). Besides, the GI50 in [7] was 25.9 µM (inactive); in assay [8], 23.1 µM (inactive); in assay [9] it was 32 µM; in assay [10], > 100 µM (inactive); in [11], 34.2 µM (inactive); in assay [12], 29.2 µM (inactive). In addition, the GI50 in [13] was 67.9 µM (inactive); in assay [14], 37.7 µM (inactive); in assay [15] it was 19.9 µM (inactive); in assay [16] it was 35.9 µM (inactive); in [17], 43.6 µM (inactive); in [18], 28.4 µM (inactive).
With `Cc1cc(NS(=O)(=O)c2ccc(NC(NC(=O)OC(C)C)(C(F)(F)F)C(F)(F)F)cc2)nc(C)n1`, the GI50 in assay [2], in assay [3], in [19], in assay [4], in assay [5] and in [6] was > 100 µM (inactive) each time. Also, the GI50 in assay [7] was > 100 µM (inactive); in assay [8] it was > 100 µM (inactive); in [9] it was more than 100 µM; in assay [10], > 100 µM (inactive); in [20] it was > 100 µM (inactive); in assay [11], > 100 µM (inactive). Moreover, the GI50 in assay [12], in assay [13], in assay [14], in [16], in [17] and in [18] was > 100 µM (inactive) each time.
For the compound `O=[N+]([O-])c1ccc(/C=N/Nc2nc3ccccc3[nH]2)o1`, the GI50 in assay [1] was 18.7 µM (inactive); in assay [2], 22.2 µM (inactive); in assay [3], 8.69 µM (inactive); in assay [19] it was 14.6 µM (inactive); in assay [4], 21.2 µM (inactive); in [5] it was 10.6 µM (inactive). Also, the GI50 was 14.8 µM (inactive) in [6]; 17.5 µM (inactive) in assay [7]; 24.4 µM (inactive) in assay [8]; 11.8 µM in [9]; 22.8 µM (inactive) in assay [10]; 8.39 µM (inactive) in assay [20]. Moreover, the GI50 in assay [11] is 13.9 µM (inactive); in assay [13] it was 13.1 µM (inactive); in assay [14], 17.4 µM (inactive); in [16] it was 19.5 µM (inactive); in assay [17], 7.57 µM (inactive); in [18], 7.71 µM (inactive).
For the compound `CCCCn1c2c(c3ccccc3c1=O)C(=O)c1ccccc1-2`, the GI50 in assay [1] is 2.79 µM (inactive); in assay [2], > 100 µM (inactive); in [3], 1.82 µM (inactive); in assay [4], > 100 µM (inactive); in assay [5] it was 20.4 µM (inactive); in assay [6], > 100 µM (inactive). For the same compound, the GI50 in assay [8] was 29 µM (inactive); in assay [9] it was more than 100 µM; in assay [10], > 100 µM (inactive); in [20], > 100 µM (inactive); in assay [11], 34.5 µM (inactive); in [13], > 100 µM (inactive). Besides, the GI50 in assay [14] is > 100 µM (inactive); in assay [15], > 100 µM (inactive); in assay [16] it was 13.3 µM (inactive); in assay [17] it was > 100 µM (inactive); in assay [18] it was 1.82 µM (inactive).
Regarding `O=c1[nH]nc(-c2ccccc2)n1-n1cccc1`, the GI50 in assay [1], in assay [2], in assay [3], in [19], in assay [4] and in [5] was > 100 µM (inactive) in each case. For the same compound, the GI50 was > 100 µM (inactive) in assay [6]; > 100 µM (inactive) in [7]; > 100 µM (inactive) in [8]; more than 100 µM in [9]; > 100 µM (inactive) in assay [10]; 50.8 µM (inactive) in [20]. Also, the GI50 in assay [11], in assay [12], in assay [13], in [15], in [16] and in [17] was > 100 µM (inactive) throughout. In assay [18], the GI50 is 9.29 µM (inactive).
Turning to `COCc1nc(C#N)c(N)o1`, the GI50 in assay [1], in assay [2], in [3], in assay [19], in assay [4] and in assay [5] was > 10 µM (inactive) each time. The GI50 in assay [6] is > 10 µM (inactive); in assay [7], > 10 µM (inactive); in [8], > 10 µM (inactive); in [9], more than 10 µM; in [10], > 10 µM (inactive); in assay [20] it was > 10 µM (inactive). For the same compound, the GI50 in [11], in [12], in [13], in [14], in assay [16] and in assay [17] was > 10 µM (inactive) in each case. Also, the GI50 in [18] is > 10 µM (inactive).
For the compound `COc1ccc(/C=C2\N=C(SC)N(CN3CCCCC3)C2=O)cc1`, the GI50 in assay [1], in [2], in [3], in assay [5], in assay [6] and in [8] was > 100 µM (inactive) in each case. Also, the GI50 in [9] is more than 100 µM; in assay [10] it was > 100 µM (inactive); in assay [11] it was > 100 µM (inactive); in [12], > 100 µM (inactive); in [13], > 100 µM (inactive); in assay [14], 0.347 µM (active). Also, the GI50 in [15], in assay [16], in assay [17] and in assay [18] was > 100 µM (inactive) throughout.
Take `CCNC1=C(NC(=O)CCl)C(=O)c2ccccc2C1=O`: the GI50 in [2] was 22 µM (inactive); in assay [3] it was 17 µM (inactive); in assay [19] it was 16.7 µM (inactive); in [4] it was > 10 µM (inactive); in [5], > 10 µM (inactive); in assay [6] it was 18.4 µM (inactive). Also, the GI50 is 23.7 µM (inactive) in assay [7]; 18.1 µM (inactive) in assay [8]; 18.5 µM in [9]; 16 µM (inactive) in [10]; 20 µM (inactive) in assay [20]; > 10 µM (inactive) in assay [11]. Moreover, the GI50 in [12] is 18 µM (inactive); in assay [13], 25.5 µM (inactive); in assay [14], 21 µM (inactive); in assay [16], > 10 µM (inactive); in assay [17] it was 15.6 µM (inactive); in assay [18] it was 32.8 µM (inactive).
As for `COC(=O)[C@@H]1C[C@H]2OC(=O)CC[C@]2(C)O[C@H]1[C@H]1O[C@@](C)(O)CCC[C@H]1C`, the GI50 in assay [1], in assay [2], in assay [3], in assay [19], in assay [4] and in assay [5] was > 50 µM (inactive) throughout. Moreover, the GI50 in assay [6] was > 50 µM (inactive); in [7], > 50 µM (inactive); in assay [8], > 50 µM (inactive); in assay [9], more than 50 µM; in [10] it was > 50 µM (inactive); in assay [20], 14.5 µM (inactive). Moreover, the GI50 in assay [11], in assay [12], in assay [13], in assay [15], in assay [16] and in [17] was > 50 µM (inactive) each time. Moreover, the GI50 in assay [18] was > 50 µM (inactive).
`Fc1ccc2c(c1)nc1n2C(c2c(F)cccc2F)SC1` (stereo not given): the GI50 in assay [1] was 25 µM (inactive); in assay [2] it was > 100 µM (inactive); in assay [3], 48.2 µM (inactive); in assay [19], 62.2 µM (inactive); in assay [4], 52.7 µM (inactive); in assay [5], 80.2 µM (inactive). In addition, the GI50 is 25.6 µM (inactive) in [6]; 37 µM (inactive) in [7]; 53.2 µM (inactive) in [8]; 38.3 µM in [9]; 29.2 µM (inactive) in assay [10]; > 100 µM (inactive) in assay [11]. The GI50 in [12] is > 100 µM (inactive); in [14], 26.2 µM (inactive); in assay [15] it was > 100 µM (inactive); in [16] it was 31.6 µM (inactive); in assay [17], 28.2 µM (inactive); in assay [18], 18.1 µM (inactive).
Turning to `CCOC1CC(C)N(C(=O)c2ccccc2)O1` (stereo not given), the GI50 in assay [1], in assay [2], in assay [19], in assay [6], in assay [7] and in assay [8] was > 100 µM (inactive) each time. Besides, the GI50 in [10] was > 100 µM (inactive); in [20], > 100 µM (inactive); in assay [11] it was > 100 µM (inactive); in assay [12] it was > 100 µM (inactive); in assay [13], > 100 µM (inactive); in [14] it was 31.7 µM (inactive). In addition, the GI50 in [16], in assay [17] and in assay [18] was > 100 µM (inactive) in each case.
